Measurements published in patent US12263199B2, “Use of Sida rhombifolia” (priority 2019, dated 2025).

Test system: 5-alpha reductase (5AR)
Experiment: Analysis of the ability of inhibition of 5AR activity (β-NADPH absorbance)
Assay type: biochemical, Sprague Dawley rats
Conditions: finasteride 100 uM, rat prostate enzyme source, 7.5 mM testosterone, 30 minutes
Procedure: In order to prepare the 5AR enzyme source, first, 15-week-old Sprague Dawley rats (obtained from Coretech) were kept under CO2 inhalation anesthesia, and then the prostate tissue was excised. After washing 200 mg of the excised tissue twice with PBS at pH 7.4, 10 ml of lysis buffer {20 mM sodium phosphate containing 0.32 M sucrose and 1 mM ethylenediaminetetraacetic acid (EDTA) at pH 6.5} was added, followed by homogenizing the mixture by a glass homogenizer. The homogenate was centrifuged at 4° C. and 5,000 rpm for 15 minutes to take the supernatant and quantify a protein using Brad Ford reagent, and then the protein was used as a 5AR enzyme source. The remaining homogenate was stored at −70° C.
The ability to inhibit 5AR activity was measured using the method of Nahata and Dixit {Andrologia, 46(6):592-601, 2014}. In a 96-well plate, the enzyme source (0.8 mg/ml protein) prepared as in 2-2, a solution obtained by dissolving the solvent extract prepared in 2-1. in methanol (50 ug/ml), 7.5 mM testosterone, and 300 uM β-NADPH were reacted at 37° C. Thereafter, absorbance according to the change in the amount of β-NADPH at 350 nm was measured every 5 minutes for a total of 30 minutes. The measurement value was calculated using a standard graph of β-NADPH, and the unit was expressed as pg/ml. […]

CC(C)(C)NC(=O)[C@H]1CC[C@H]2[C@@H]3CC[C@H]4NC(=O)C=C[C@]4(C)[C@H]3CC[C@]12C [finasteride]
concentration of β-NADPH in the reaction solution at the end of the reaction (5AR activity inhibition): concentration of β-NADPH increased compared to that in the negative control group
